Key:
[1] = DRUGMATRIX: GABAA, Muscimol, Central radioligand binding (ligand: [3H] Muscimol); type: cell membranes, Rattus norvegicus, Wistar, Brain, Membrane; details: Not Active = under 50% inhibition at 10 µM
[2] = DRUGMATRIX: Glutamate, Kainate radioligand binding (ligand: [3H] Kainic acid); type: cell membranes, Rattus norvegicus, Wistar, Brain, Membrane; details: Not Active = under 50% inhibition at 10 µM
[3] = target: Protein phosphatase 3 catalytic subunit alpha (Homo sapiens, UniProt Q08209); design: species or system Escherichia coli;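 note: inhibition of calcineurin (PP2B) enzyme activity, measured with DiFMUP as the substrate; in other assays of this panel Not Active means under 50% inhibition at 10 µM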
[4] = DRUGMATRIX: GABAA, Flunitrazepam, Central radioligand binding (ligand: [3H] Flunitrazepam); type: cell membranes, Rattus norvegicus, Wistar, Brain, Membrane; details: Not Active = under 50% inhibition at 10 µM
[5] = target: D(1A) dopamine receptor (Homo sapiens, UniProt P21728); assay: DRUGMATRIX: Dopamine D1 radioligand binding (ligand: [3H] SCH-23390); type: cell membranes, CHO, Membrane; details: cho; Not Active = under 50% inhibition at 10 µM
D(1A) dopamine receptor, sequence (P21728 whole entry): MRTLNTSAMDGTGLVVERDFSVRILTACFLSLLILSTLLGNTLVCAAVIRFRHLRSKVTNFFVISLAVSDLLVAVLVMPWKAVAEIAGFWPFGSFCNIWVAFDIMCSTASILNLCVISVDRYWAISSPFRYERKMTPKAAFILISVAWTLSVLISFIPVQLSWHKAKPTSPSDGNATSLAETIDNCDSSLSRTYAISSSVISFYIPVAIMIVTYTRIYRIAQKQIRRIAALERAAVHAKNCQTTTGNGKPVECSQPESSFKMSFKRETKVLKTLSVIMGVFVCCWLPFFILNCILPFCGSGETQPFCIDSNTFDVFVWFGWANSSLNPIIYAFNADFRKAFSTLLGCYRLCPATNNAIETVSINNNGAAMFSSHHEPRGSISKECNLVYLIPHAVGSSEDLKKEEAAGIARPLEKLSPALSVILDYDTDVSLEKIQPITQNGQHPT

[6] = DRUGMATRIX: Glutamate, AMPA radioligand binding (ligand: [3H] AMPA); type: cell membranes, Rattus norvegicus, Wistar, Cerebral cortex, Membrane; details: Not Active = under 50% inhibition at 10 µM
[7] = target: Cytochrome P450 2D6 (Homo sapiens, UniProt P10635); details: bti-tn-5b1-4; note: in other assays of this panel Not Active means under 50% inhibition at 10 µM
Cytochrome P450 2D6, sequence (P10635 whole entry): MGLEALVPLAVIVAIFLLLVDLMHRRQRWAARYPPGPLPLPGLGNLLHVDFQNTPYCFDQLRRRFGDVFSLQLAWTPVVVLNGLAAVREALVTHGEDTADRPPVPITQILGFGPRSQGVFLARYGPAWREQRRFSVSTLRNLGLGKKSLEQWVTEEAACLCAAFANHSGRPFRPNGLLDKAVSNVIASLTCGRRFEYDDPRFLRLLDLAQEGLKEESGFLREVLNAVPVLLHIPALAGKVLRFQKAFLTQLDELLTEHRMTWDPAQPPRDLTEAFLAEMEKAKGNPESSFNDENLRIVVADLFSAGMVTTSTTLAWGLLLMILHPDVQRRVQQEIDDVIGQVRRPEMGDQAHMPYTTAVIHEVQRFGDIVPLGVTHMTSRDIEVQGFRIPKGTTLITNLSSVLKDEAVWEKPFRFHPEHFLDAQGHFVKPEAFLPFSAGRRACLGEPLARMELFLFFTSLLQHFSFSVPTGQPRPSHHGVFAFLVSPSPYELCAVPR

[8] = target: T1, Cytochrome P450 2A6 (Homo sapiens, UniProt P11509); details: bti-tn-5b1-4; note: in other assays of this panel Not Active means under 50% inhibition at 10 µM
T1 sequence (P11509 whole entry): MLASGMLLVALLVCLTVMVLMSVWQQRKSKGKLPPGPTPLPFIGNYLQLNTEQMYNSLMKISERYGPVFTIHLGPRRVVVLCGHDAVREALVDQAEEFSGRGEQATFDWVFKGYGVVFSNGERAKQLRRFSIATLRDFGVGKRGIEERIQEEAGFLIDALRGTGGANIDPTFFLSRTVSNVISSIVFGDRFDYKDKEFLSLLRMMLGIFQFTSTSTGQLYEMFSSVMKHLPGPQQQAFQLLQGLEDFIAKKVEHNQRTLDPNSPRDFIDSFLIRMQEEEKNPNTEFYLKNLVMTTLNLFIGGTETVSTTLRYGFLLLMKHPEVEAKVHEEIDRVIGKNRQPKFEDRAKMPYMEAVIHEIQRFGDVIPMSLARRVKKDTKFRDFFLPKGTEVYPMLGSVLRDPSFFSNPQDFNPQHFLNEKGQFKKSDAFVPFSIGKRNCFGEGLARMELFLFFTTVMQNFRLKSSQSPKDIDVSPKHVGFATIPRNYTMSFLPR

[9] = target: Glycine receptor (Rattus norvegicus, UniProt P22771+P24524+P07727+P20781); type: cell membranes, Wistar, Spinal cord, Membrane; note: in other assays of this panel Not Active means under 50% inhibition at 10 µM

O=P(O)(O)C(O)(Cc1cccnc1)P(=O)(O)O [RISEDRONIC ACID]
Not Active: IC50 [1] | Ki [1] | IC50 [2] | Ki [2] | IC50 [3] | IC50 [4] | Ki [4] | IC50 [5] | IC50 [6] | Ki [6] | IC50 [7] | Ki [7] | IC50 [8] | Ki [8] | IC50 [9]

Nc1ccc(S(=O)(=O)Nc2nccs2)cc1 [SULFATHIAZOLE]
Not Active: IC50 [1] | Ki [1] | IC50 [2] | Ki [2] | IC50 [3] | IC50 [4] | Ki [4] | IC50 [5] | IC50 [6] | Ki [6] | IC50 [7] | Ki [7] | IC50 [8] | Ki [8] | IC50 [9]

Nc1ccc(S(=O)(=O)Nc2ncccn2)cc1 [SULFADIAZINE]
Not Active: IC50 [1] | Ki [1] | IC50 [2] | Ki [2] | IC50 [3] | IC50 [4] | Ki [4] | IC50 [5] | IC50 [6] | Ki [6] | IC50 [7] | Ki [7] | IC50 [8] | Ki [8] | IC50 [9]

CN[C@@H]1[C@H](O)[C@H](NC)[C@H]2O[C@@]3(O)C(=O)C[C@@H](C)O[C@H]3O[C@@H]2[C@H]1O [SPECTINOMYCIN]
Not Active: IC50 [1] | Ki [1] | IC50 [2] | Ki [2] | IC50 [3] | IC50 [4] | Ki [4] | IC50 [5] | IC50 [6] | Ki [6] | IC50 [7] | Ki [7] | IC50 [8] | Ki [8] | IC50 [9]

C=C(C)[C@H]1Cc2c(ccc3c2O[C@@H]2COc4cc(OC)c(OC)cc4[C@@H]2C3=O)O1 [ROTENONE]
Not Active: IC50 [1] | Ki [1] | IC50 [2] | Ki [2] | IC50 [3] | IC50 [4] | Ki [4] | IC50 [5] | IC50 [6] | Ki [6] | IC50 [7] | Ki [7] | IC50 [8] | Ki [8] | IC50 [9]

O=C(O)C(Cl)(Cl)Cl [TRICHLOROACETIC ACID]
Not Active: IC50 [1] | Ki [1] | IC50 [2] | Ki [2] | IC50 [3] | IC50 [4] | Ki [4] | IC50 [5] | IC50 [6] | Ki [6] | IC50 [7] | Ki [7] | IC50 [8] | Ki [8] | IC50 [9]

CNS(=O)(=O)Cc1ccc2[nH]cc(CCN(C)C)c2c1
Not Active: IC50 [1] | Ki [1] | IC50 [2] | Ki [2] | IC50 [3] | IC50 [4] | Ki [4] | IC50 [5] | IC50 [6] | Ki [6] | IC50 [7] | Ki [7] | IC50 [8] | Ki [8] | IC50 [9]

CCCc1nn(C)c2c(=O)[nH]c(-c3cc(S(=O)(=O)N4CCN(C)CC4)ccc3OCC)nc12
Not Active: IC50 [1] | Ki [1] | IC50 [2] | Ki [2] | IC50 [3] | IC50 [4] | Ki [4] | IC50 [5] | IC50 [6] | Ki [6] | IC50 [7] | Ki [7] | IC50 [8] | Ki [8] | IC50 [9]

Nc1nc2c(c(=O)[nH]1)N(C=O)C(CNc1ccc(C(=O)N[C@@H](CCC(=O)O)C(=O)O)cc1)CN2 (stereo partly drawn) [LEUCOVORIN]
Not Active: IC50 [1] | Ki [1] | IC50 [2] | Ki [2] | IC50 [3] | IC50 [4] | Ki [4] | IC50 [5] | IC50 [6] | Ki [6] | IC50 [7] | Ki [7] | IC50 [8] | Ki [8] | IC50 [9]

C#CCN(C)[C@H](C)Cc1ccccc1 [SELEGILINE]
Not Active: IC50 [1] | Ki [1] | IC50 [2] | Ki [2] | IC50 [3] | IC50 [4] | Ki [4] | IC50 [5] | IC50 [6] | Ki [6] | IC50 [7] | Ki [7] | IC50 [8] | Ki [8] | IC50 [9]

COc1cc(C(=O)NS(=O)(=O)c2ccccc2C)ccc1Cc1cn(C)c2ccc(NC(=O)OC3CCCC3)cc12 [ZAFIRLUKAST]
Not Active: IC50 [1] | Ki [1] | IC50 [2] | Ki [2] | IC50 [3] | IC50 [4] | Ki [4] | IC50 [5] | IC50 [6] | Ki [6] | IC50 [7] | Ki [7] | IC50 [8] | Ki [8] | IC50 [9]

STANNOUS FLUORIDE
Not Active: IC50 [1] | Ki [1] | IC50 [2] | Ki [2] | IC50 [3] | Ki [3] | IC50 [4] | Ki [4] | IC50 [5] | Ki [5] | IC50 [6] | Ki [6] | IC50 [7] | Ki [7] | IC50 [8] | Ki [8] | IC50 [9] | Ki [9]

C[C@]12CC[C@H]3[C@@H](CCC4=CC(=O)CC[C@@]43C)[C@@H]1CC[C@@H]2O [TESTOSTERONE]
Not Active: IC50 [1] | Ki [1] | IC50 [2] | Ki [2] | IC50 [3] | IC50 [4] | Ki [4] | IC50 [5] | IC50 [6] | Ki [6] | IC50 [7] | Ki [7] | IC50 [8] | Ki [8] | IC50 [9]

COc1ccc(/C=C/C(=O)Nc2ccccc2C(=O)O)cc1OC
Not Active: IC50 [1] | Ki [1] | IC50 [2] | Ki [2] | IC50 [3] | IC50 [4] | Ki [4] | IC50 [5] | IC50 [6] | Ki [6] | IC50 [7] | Ki [7] | IC50 [8] | Ki [8] | IC50 [9]
